Experimental data reported in article PMC9120017, “Inhibition mechanism of the chloride channel TMEM16A by the pore blocker 1PBC” (Nature Communications, 2022).
Read-outs that look alike come from different tables or passages of the source.

Target: T1, mouse TMEM16A mutant V599A (Mus musculus, UniProt Q8BHY3, V599A)
T1 construct: expressed in transfected cells; host or cells: HEK293T
T1 sequence (Q8BHY3 1-960 V599A): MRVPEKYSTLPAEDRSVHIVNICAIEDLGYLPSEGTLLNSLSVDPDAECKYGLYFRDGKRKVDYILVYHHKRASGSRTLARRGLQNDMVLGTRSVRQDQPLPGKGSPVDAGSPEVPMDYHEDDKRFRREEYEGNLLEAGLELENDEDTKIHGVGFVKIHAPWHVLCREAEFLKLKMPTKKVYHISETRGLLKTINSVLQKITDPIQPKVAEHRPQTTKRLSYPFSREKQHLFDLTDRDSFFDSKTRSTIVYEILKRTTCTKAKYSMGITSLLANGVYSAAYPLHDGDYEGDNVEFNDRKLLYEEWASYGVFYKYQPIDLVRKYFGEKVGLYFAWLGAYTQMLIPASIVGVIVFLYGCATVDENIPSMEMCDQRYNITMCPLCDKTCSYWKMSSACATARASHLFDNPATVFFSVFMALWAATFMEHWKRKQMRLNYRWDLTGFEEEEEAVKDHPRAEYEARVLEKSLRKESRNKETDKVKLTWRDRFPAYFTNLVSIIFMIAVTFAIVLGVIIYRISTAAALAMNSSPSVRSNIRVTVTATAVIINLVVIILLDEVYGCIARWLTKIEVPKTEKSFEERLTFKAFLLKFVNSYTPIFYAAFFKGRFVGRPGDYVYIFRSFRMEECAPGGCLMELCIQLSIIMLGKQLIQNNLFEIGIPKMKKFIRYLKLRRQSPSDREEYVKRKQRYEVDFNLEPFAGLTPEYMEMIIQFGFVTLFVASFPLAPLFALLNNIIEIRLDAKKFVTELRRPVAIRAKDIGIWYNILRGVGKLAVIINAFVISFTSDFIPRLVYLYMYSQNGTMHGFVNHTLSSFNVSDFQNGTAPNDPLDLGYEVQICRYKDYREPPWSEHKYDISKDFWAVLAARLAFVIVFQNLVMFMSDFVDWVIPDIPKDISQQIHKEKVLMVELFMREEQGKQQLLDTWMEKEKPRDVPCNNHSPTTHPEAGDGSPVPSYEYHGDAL
Assay: Inside-out patch recording of 1PBC block, mutant V599A
Format: cell-based
Details: for remaining activity at 3 µM: 1PBC conc 3; for remaining activity at 3 µM / remaining activity at 10 µM / remaining activity at 30 µM / remaining activity at 100 µM: read-out: relative current in 1PBC (avr); for remaining activity at 10 µM: 1PBC conc 10; for remaining activity at 30 µM: 1PBC conc 30; for remaining activity at 100 µM: 1PBC conc 100
Protocol: HEK293T cells (ATCC CRL-1573) were maintained in Dulbecco’s modified Eagle’s medium (DMEM; Sigma-Aldrich) supplemented with 10 U ml^−1 penicillin, 0.1 mg ml^−1 streptomycin (Sigma-Aldrich), 2 mM L-glutamine (Sigma-Aldrich), and 10% FBS (Sigma-Aldrich) in a humidified atmosphere containing 5% CO2 at 37 °C. HEK293S GnTI^− cells (ATCC CRL-3022) were maintained in HyClone HyCell TransFx-H medium (GE Healthcare) supplemented with 10 U ml^−1 penicillin, 0.1 mg ml^−1 streptomycin, 4 mM L-glutamine, 0.15% poloxamer 188 (Sigma-Aldrich), and 1% FBS in an atmosphere containing 5% CO2 at 185 rpm at 37 °C. The ac splice variant of mouse TMEM16A (UniProt ID: Q8BHY3), mouse TMEM16B (UniProt ID: Q8CFW1), or mouse TMEM16F (UniProt ID: Q6P9J9) bearing a 3C cleavage site, a Venus YFP, a Myc tag, and a Streptavidin-binding peptide (SBP) downstream of the open reading frame in a modified pcDNA3.1 vector (Invitrogen) were used as described previously[21],[31]. Mutations were introduced using a modified QuikChange method[58] and were verified by sequencing.
HEK293T cells were transfected with 3–4 μg DNA per 6 cm Petri dish using the calcium phosphate co-precipitation method and were used within 24–96 h after transfection. Recordings were performed on inside-out patches excised from HEK293T cells expressing the construct of interest. Patch pipettes were pulled from borosilicate glass capillaries (O.D. 1.5 mm, I.D. 0.86 mm, Sutter Instrument) and were fire-polished with a microforge (Narishige) before use. Pipette resistance was typically 3–8 MΩ when filled with the recording solutions detailed below. Seal resistance was typically 4 GΩ or higher. Voltage-clamp recordings were made using Axopatch 200B, Digidata 1550, and Clampex 10.7 (Molecular Devices). Analog signals were filtered with the in-built 4-pole Bessel filter at 10 kHz and were digitized at 20 kHz. Solution exchange was achieved using a gravity-fed system through a theta glass pipette mounted on an ultra-fast piezo-driven stepper (Siskiyou). […] All recordings were performed at 20 °C.
A symmetrical ionic condition was used throughout. Stock solution with Ca^2+-EGTA contained 150 mM NaCl, 5.99 mM Ca(OH)2, 5 mM EGTA, and 10 mM HEPES at pH 7.40. Stock solution with EGTA contained 150 mM NaCl, 5 mM EGTA, and 10 mM HEPES at pH 7.40. Free Ca^2+ concentrations were adjusted by mixing the stock solutions at the required ratios calculated using the WEBMAXC program (http://web.stanford.edu/~cpatton/webmaxcS.htm). Patch pipettes were filled with the stock solution with Ca^2+-EGTA, which has a free Ca^2+ concentration of 1 mM. 1PBC (ChemBridge) stock was reconstituted in anhydrous DMSO (Sigma-Aldrich) at 100 mM and stored at −20 °C. Working solutions with 1PBC were prepared by serial dilution. Unless otherwise stated, experiments were performed at a saturating Ca^2+ concentration as shown in Supplementary Table 1 and the primary data were corrected for current rundown as described previously[21],[25].
Concentration-response relations, obtained from the ratio of the I-V plots before and after the application of the blocker, were fitted to the Hill equation,1 I/Imax=1/1+IC50/[blocker]^h where I/Imax is the normalized current responses, IC50 defines the concentration at which inhibition is at its half-maximum, and h is the Hill coefficient.

`N#Cc1c(C(F)(F)F)cc(O)n2c1nc1ccccc12` [1PBC] gave an IC50 (-20 mV, 15 µM Ca2+) of 79.2 µM, a remaining activity at 3 µM (-20 mV) of 93.7% and a remaining activity at 10 µM (-20 mV) of 88.9%. It also gave a remaining activity at 30 µM (-20 mV) of 74.6%, a remaining activity at 100 µM (-20 mV) of 42.8% and an IC50 (-40 mV, 15 µM Ca2+) of 87.5 µM. It also gave a remaining activity at 3 µM (-40 mV) of 93.7%, a remaining activity at 10 µM (-40 mV) of 89.2% and a remaining activity at 30 µM (-40 mV) of 76.8%. The remaining activity at 100 µM (-40 mV) was 45.5%, the IC50 (-60 mV, 15 µM Ca2+) was 97.2 µM and the remaining activity at 3 µM (-60 mV) was 94.2%. For the same compound, the remaining activity at 10 µM (-60 mV) was 90.8%, the remaining activity at 30 µM (-60 mV) was 77.7% and the remaining activity at 100 µM (-60 mV) was 48.6%. It also gave an IC50 (-80 mV, 15 µM Ca2+) of 104 µM, a remaining activity at 3 µM (-80 mV) of 94.9% and a remaining activity at 10 µM (-80 mV) of 91.7%. It also gave a remaining activity at 30 µM (-80 mV) of 78.1%, a remaining activity at 100 µM (-80 mV) of 50.8% and an IC50 (-100 mV, 15 µM Ca2+) of 109 µM. For the same compound, the remaining activity at 3 µM (-100 mV) was 94.9%, the remaining activity at 10 µM (-100 mV) was 91.7% and the remaining activity at 30 µM (-100 mV) was 78.5%. The remaining activity at 100 µM (-100 mV) was 52.3%, the IC50 (-120 mV, 15 µM Ca2+) was 115 µM and the remaining activity at 3 µM (-120 mV) was 95.9%. The remaining activity at 10 µM (-120 mV) was 93.5%, the remaining activity at 30 µM (-120 mV) was 79.4% and the remaining activity at 100 µM (-120 mV) was 53.3%. The IC50 (-140 mV, 15 µM Ca2+) was 119 µM, the remaining activity at 3 µM (-140 mV) was 96% and the remaining activity at 10 µM (-140 mV) was 93.2%. For the same compound, the remaining activity at 30 µM (-140 mV) was 79.3%, the remaining activity at 100 µM (-140 mV) was 54.7% and the IC50 (V599A, V 0 mV) was 69.5 µM. The IC50 (V599A, V 20 mV) was 61.3 µM, the IC50 (V599A, V 40 mV) was 55.5 µM and the IC50 (V599A, V 60 mV) was 48.9 µM. For the same compound, the IC50 (V599A, V 80 mV) was 45.8 µM, the IC50 (V599A, V 100 mV) was 45 µM and the IC50 (V599A, V 120 mV) was 45.1 µM. For the same compound, the IC50 (V599A, V 140 mV) was 48.5 µM, the IC50 (V599A, V -20 mV) was 79.2 µM and the IC50 (V599A, V -40 mV) was 87.5 µM. For the same compound, the IC50 (V599A, V -60 mV) was 97.2 µM, the IC50 (V599A, V -80 mV) was 104 µM and the IC50 (V599A, V -100 mV) was 109 µM. The IC50 (V599A, V -120 mV) was 115 µM and the IC50 (V599A, V -140 mV) was 119 µM.
